Experimental data as given in patent US6737383B1, “Herbicidal oxadiazolidines” (priority 1999, dated 2004).

How the values were obtained:
surinam grass = test: Test B pre/postemergence surinam grass; type: in vivo, Brachiaria decumbens
Summary of the method: (§1)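 Test chemicals in a non-phytotoxic solvent mixture with surfactant were sprayed preemergence onto planted seeds and postemergence onto plants 2 to 18 cm tall (1- to 4-leaf stage). After twelve to sixteen days in a greenhouse, injury was visually rated against untreated controls from 0 (no effect) to 10 (complete control).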

giant foxtail = test: Test B pre/postemergence giant foxtail; type: in vivo, Setaria faberii
Summary of the method: as §1

bamyardgrass = test: Test B flood test barnyardgrass; type: in vivo, Echinochloa crus-galli
Summary of the method: (§2)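 Each value is a visual injury score relative to controls, with 10 meaning complete control and 0 no effect. Evaluation took place twelve to sixteen days after the 2-leaf-stage plants were treated and kept in the greenhouse.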

purple nutsedge = test: Test B pre/postemergence purple nutsedge; type: in vivo, Cyperus rotundus
Summary of the method: as §1

rape = test: Test B pre/postemergence rape; type: in vivo, Brassica napus
Summary of the method: as §1

duck salad = test: Test B flood test duck salad; type: in vivo, Heteranthera limosa
Summary of the method: as §2

blackgrass = test: Test B pre/postemergence blackgrass; type: in vivo, Alopecurus myosuroides
Summary of the method: as §1

sugar beet = test: Test B pre/postemergence sugar beet; type: in vivo, Beta vulgaris
Summary of the method: as §1

velvetleaf = test: Test B pre/postemergence velvetleaf; type: in vivo, Abutilon theophrasti
Summary of the method: as §1

pigweed = test: Test B pre/postemergence pigweed; type: in vivo, Amaranthus retroflexus
Summary of the method: as §1

corn = test: Test B pre/postemergence corn; type: in vivo, Zea mays
Summary of the method: as §1

smallflower flatsedge = test: Test B flood test smallflower flatsedge; type: in vivo, Cyperus difformis
Summary of the method: as §2

cocklebur = test: Test B pre/postemergence cocklebur; type: in vivo, Xanthium strumarium
Summary of the method: as §1

soybean = test: Test B pre/postemergence soybean; type: in vivo, Glycine max
Summary of the method: as §1

bedstraw = test: Test B pre/postemergence bedstraw; type: in vivo, Galium aparine
Summary of the method: as §1

morningglory = test: Test B pre/postemergence morningglory; type: in vivo, Ipomoea hederacea
Summary of the method: as §1

[1] = Postemergence, Rate 500 g/ha, scale of 0 to 10 where 0 is no effect and 10 is complete control
[2] = Preemergence, Rate 62 g/ha, scale of 0 to 10 where 0 is no effect and 10 is complete control
[3] = Preemergence, Rate 125 g/ha, scale of 0 to 10 where 0 is no effect and 10 is complete control
[4] = Preemergence, Rate 250 g/ha, scale 0 to 10, 0 is no effect, 10 is complete control
[5] = Preemergence, Rate 500 g/ha, scale 0 to 10, 0 is no effect, 10 is complete control
[6] = Rate 62 g/ha, Postemergence, scale 0 to 10 (0 no effect, 10 complete control)
[7] = Rate 125 g/ha, Postemergence, scale 0 to 10, 0 is no effect, 10 is complete control
[8] = Postemergence, Rate 250 g/ha, scale 0 to 10
[9] = Rate 62 g/ha, flood test species, Pre-emergence, visual evaluation after twelve to sixteen days
[10] = Rate 125 g/ha, under heading Pre-emergence, flood test species, visual evaluation after twelve to sixteen days
[11] = Rate 250 g/ha, Pre-emergence (flood test species), scale 0 to 10, 0 is no effect, 10 is complete control
[12] = Rate 500 g/ha, Pre-emergence, flood test species, scale 0 to 10 (0 no effect, 10 complete control)

CC(C)N(C(=O)n1oc(=O)n(C(C)Cl)c1=O)c1ccccc1 (stereo not drawn) [Compound 438]
1: Soybean plant response rating (soybean; [6]) | Soybean plant response rating (soybean; [7])
3: Blackgrass plant response rating (blackgrass; [5]) | Corn plant response rating (corn; [1]) | Cocklebur plant response rating (cocklebur; [8]) | Cocklebur plant response rating (cocklebur; [1])
2: B. signalgrass plant response rating (surinam grass; [5]) | Plant response rating, Giant foxtail (giant foxtail; [2]) | Rape plant response rating (rape; [5]) | Blackgrass plant response rating (blackgrass; [8]) | Blackgrass plant response rating (blackgrass; [1]) | Blackgrass plant response rating (blackgrass; [4]) | Plant response rating, Redroot pigweed (pigweed; [2]) | Plant response rating, Redroot pigweed (pigweed; [3]) | Soybean plant response rating (soybean; [8]) | Soybean plant response rating (soybean; [5]) | Morningglory plant response rating (morningglory; [5])
4: Morningglory plant response rating (morningglory; [6])
0: B. signalgrass plant response rating (surinam grass; Postemergence, Rate 250 g/ha, scale 0 to 10, 0 no effect, 10 complete control) | B. signalgrass plant response rating (surinam grass; [1]) | Plant response rating, B. signalgrass (surinam grass; [2]) | Plant response rating, B. signalgrass (surinam grass; [3]) | B. signalgrass plant response rating (surinam grass; [4]) | B. signalgrass plant response rating (surinam grass; [6]) | B. signalgrass plant response rating (surinam grass; [7]) | Plant response rating, Barnyardgrass (0 to 10 scale, 0 is no effect, 10 is complete control) (bamyardgrass; [9]) | Barnyardgrass plant response rating (0 to 10 scale, 0 is no effect, 10 is complete control) (bamyardgrass; [10]) | Barnyardgrass plant response rating (bamyardgrass; [11]) | Barnyardgrass plant response rating (bamyardgrass; [12]) | Nutsedge plant response rating (purple nutsedge; [8]) | Nutsedge plant response rating (purple nutsedge; [1]) | Plant response rating, Nutsedge (purple nutsedge; [2]) | Plant response rating, Nutsedge (purple nutsedge; [3]) | Nutsedge plant response rating (purple nutsedge; [4]) | Nutsedge plant response rating (purple nutsedge; [6]) | Nutsedge plant response rating (purple nutsedge; [7]) | Rape plant response rating (rape; [8]) | Rape plant response rating (rape; [1]) | Plant response rating, Rape (rape; [2]) | Plant response rating, Rape (rape; [3]) | Rape plant response rating (rape; [4]) | Rape plant response rating (rape; [6]) | Rape plant response rating (rape; [7]) | Plant response rating, Ducksalad (0 to 10 scale, 0 is no effect, 10 is complete control) (duck salad; [9]) | Ducksalad plant response rating (0 to 10 scale, 0 is no effect, 10 is complete control) (duck salad; [10]) | Ducksalad plant response rating (duck salad; [11]) | Ducksalad plant response rating (duck salad; [12]) | Plant response rating, Blackgrass (blackgrass; [2]) | Plant response rating, Blackgrass (blackgrass; [3]) | Blackgrass plant response rating (blackgrass; [6]) | Blackgrass plant response rating (blackgrass; [7]) | Sugarbeets plant response rating (sugar beet; [8]) | Sugarbeets plant response rating (sugar beet; [1]) | Plant response rating, Sugarbeets (sugar beet; [2]) | Plant response rating, Sugarbeets (sugar beet; [3]) | Sugarbeets plant response rating (sugar beet; [4]) | Sugarbeets plant response rating (sugar beet; [5]) | Sugarbeets plant response rating (sugar beet; [6]) | Sugarbeets plant response rating (sugar beet; [7]) | Velvetleaf plant response rating (velvetleaf; [8]) | Velvetleaf plant response rating (velvetleaf; [1]) | Plant response rating, Velvetleaf (velvetleaf; [2]) | Plant response rating, Velvetleaf (velvetleaf; [3]) | Velvetleaf plant response rating (velvetleaf; [6]) | Velvetleaf plant response rating (velvetleaf; [7]) | Redroot pigweed plant response rating (pigweed; [8]) | Redroot pigweed plant response rating (pigweed; [1]) | Redroot pigweed plant response rating (pigweed; [6]) | Redroot pigweed plant response rating (pigweed; [7]) | Corn plant response rating (corn; [8]) | Plant response rating, Corn (corn; [2]) | Plant response rating, Corn (corn; [3]) | Corn plant response rating (corn; [4]) | Corn plant response rating (corn; [5]) | Corn plant response rating (corn; [6]) | Corn plant response rating (corn; [7]) | Plant response rating, S. Flatsedge (0 to 10 scale, 0 is no effect, 10 is complete control) (smallflower flatsedge; [9]) | S. Flatsedge plant response rating (0 to 10 scale, 0 is no effect, 10 is complete control) (smallflower flatsedge; [10]) | S. Flatsedge plant response rating (smallflower flatsedge; [11]) | S. Flatsedge plant response rating (smallflower flatsedge; [12]) | Plant response rating, Cocklebur (cocklebur; [2]) | Plant response rating, Cocklebur (cocklebur; [3]) | Cocklebur plant response rating (cocklebur; [4]) | Cocklebur plant response rating (cocklebur; [5]) | Cocklebur plant response rating (cocklebur; [6]) | Cocklebur plant response rating (cocklebur; [7]) | Plant response rating, Soybean (soybean; [2]) | Plant response rating, Soybean (soybean; [3]) | Soybean plant response rating (soybean; [4]) | Bedstraw plant response rating (bedstraw; [8]) | Bedstraw plant response rating (bedstraw; [4]) | Bedstraw plant response rating (bedstraw; [6]) | Bedstraw plant response rating (bedstraw; [7]) | Plant response rating, Morningglory (morningglory; [2]) | Plant response rating, Morningglory (morningglory; [3]) | Morningglory plant response rating (morningglory; [4])
9: Giant foxtail plant response rating (giant foxtail; [8]) | Giant foxtail plant response rating (giant foxtail; [1]) | Morningglory plant response rating (morningglory; [8])
8: Morningglory plant response rating (morningglory; [7])
10: Giant foxtail plant response rating (giant foxtail; [4]) | Giant foxtail plant response rating (giant foxtail; [5]) | Redroot pigweed plant response rating (pigweed; [5]) | Morningglory plant response rating (morningglory; [1])
5: Giant foxtail plant response rating (giant foxtail; [6]) | Giant foxtail plant response rating (giant foxtail; [7]) | Velvetleaf plant response rating (velvetleaf; [4]) | Redroot pigweed plant response rating (pigweed; [4])
7: Plant response rating, Giant foxtail (giant foxtail; [3])
6: Velvetleaf plant response rating (velvetleaf; [5]) | Soybean plant response rating (soybean; [1])
